Measurements published in US12678445B2, “Methods for treating glioblastoma” (BOARD OF REGENTS, THE UNIVERSITY OF TEXAS SYSTEM, priority 2020, dated 2026).

Key:
[1] = test system: murine GBM cell lines (GL261); assay: GBM (GL261) tumor bearing mice: tumor growth and survival; type: in vivo; settings: FIG. 4
Excerpt: (§1) To test this hypothesis, the inventors crossed LysM^cre (Jackson Laboratory. 004781) and KDm6B^fl/fl (Jackson Laboratory, 029615) mice to generate LysM^creKDm6B^fl/fl mice. The inventors inoculated murine GBM cell lines (GL261) into the LysM^creKDm6B^fl/fl mice (FIG. 5). […] The pre-clinical data provide a strong rationale of testing KDM6B inhibitor in clinic in combination with immune checkpoint therapy.

myeloid cells = assay: Macrophage / myeloid cell phenotype in GBM tumor bearing mice; type: in vivo; settings: compared with myeloid specific depletion of KDM6B (increasing type I and type II IFN responses and antigen presenting pathways)
Excerpt: as §1

## CCOC(=O)CCNc1cc(N2CCc3ccccc3CC2)nc(-c2ccccn2)n1 [GSK-J4]
[1]
  survival: improved survival
  tumor growth: attenuated tumor growth
Myeloid cells
  changes of macrophage phenotype: could recapitulate the changes of macrophage phenotype
